One assay deals with MOLM14 D835Y cells. Description: MOLM14 D835Y cell viability assay (Cell Titer Glo). Type of assay: cell-based. Conditions: Homo sapiens, MOLM-14, 48 h, read-out: MOLM14 D835Y IC50. Summed up: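 Luminescent ATP read-out (CellTiter-Glo, 15 min room temperature) taken 48 h after compound addition. Cells were MOLM14 carrying FLT3 D835Y or F691L mutations, plated at 1000 cells per well.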
On the technique in general: Cellular ATP, detected with luciferase, serves as a proxy for viable cell number.

The next assay concerns the target T1, IRAK4 (Homo sapiens, UniProt Q9NWZ3).
T1 sequence (Q9NWZ3 1-460): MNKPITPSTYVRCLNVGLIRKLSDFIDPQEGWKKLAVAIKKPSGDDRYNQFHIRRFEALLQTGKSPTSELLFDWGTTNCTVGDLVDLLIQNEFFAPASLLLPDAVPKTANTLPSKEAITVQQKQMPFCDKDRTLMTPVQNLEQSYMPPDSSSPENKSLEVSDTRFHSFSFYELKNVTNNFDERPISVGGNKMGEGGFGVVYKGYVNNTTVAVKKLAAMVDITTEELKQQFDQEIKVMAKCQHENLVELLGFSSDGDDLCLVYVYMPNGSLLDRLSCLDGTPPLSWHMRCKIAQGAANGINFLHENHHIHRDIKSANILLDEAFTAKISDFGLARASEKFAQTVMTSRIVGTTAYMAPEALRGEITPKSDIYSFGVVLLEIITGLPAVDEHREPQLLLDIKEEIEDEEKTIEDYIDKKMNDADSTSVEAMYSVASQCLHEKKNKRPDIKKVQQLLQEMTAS
Description: RBC HotSpot Kinase Assay, IRAK4. Conditions: isolated kinase enzyme, 33P-ATP, P81 filter-binding. Further details: purchased Reaction Biology (RBC HotSpot). Type of assay: biochemical. In a few lines:
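Radiometric filter-binding activity assay with isolated recombinant kinase (construct may be truncated or catalytic domain only) in 20 mM Hepes pH 7.5, 10 mM MgCl2, 1 mM EGTA, 2 mM DTT, 1% DMSO. Compound preincubated 20 min with kinase/substrate; reaction started with 33P-ATP, run 2 h at room temperature.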

For another assay, the system named is MOLM14 F691L cells. Description: MOLM14 F691L cell viability assay (Cell Titer Glo). The format is cell-based. Conditions: Homo sapiens, read-out: MOLM14 F691L IC50. As to the method:
Both cell lines have activated FLT3 receptors, each of which carry additional resistance mutations in the kinase domain (D835Y and F691L, respectively).
For viability/cytotoxicity assessments, cells were seeded into 1536-well white polystyrene tissue culture-treated Greiner plates using a Multidrop Combi dispenser (ThermoFisher), in final volume 5 μL of growth media per well, at a density of 1000 cells per well. […] Plates were incubated for 48 hours at standard incubator conditions covered by a stainless steel gasketed lid to prevent evaporation. 48 hours post compound addition, 3 μL of Cell Titer Glo (Promega) were added to each well and plates were incubated at room temperature for 15 minutes with the stainless-steel lid in place. Luminescence readings were taken using a Viewlux imager (PerkinElmer) with a 2 second exposure time per plate.

For a further assay, the target named is T2, IRAK1 (Homo sapiens, UniProt P51617).
T2 construct: purchased Reaction Biology (RBC HotSpot)
Description: RBC HotSpot Kinase Assay, IRAK1. The format is biochemical. To be noted: isolated kinase enzyme, 33P-ATP, P81 filter-binding. Summed up: (§1)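 Reactions ran in 20 mM Hepes (pH 7.5) containing 10 mM MgCl2, 1 mM EGTA, 0.1 mM Na3VO4, 2 mM DTT, 0.02 mg/ml BSA, 0.01% Brij35 and 1% DMSO, plus required cofactors. Functional activity readout on the expressible enzyme form, sometimes C-terminally truncated or lacking receptor regulatory regions.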

The target in another assay is T3, FLT3 (Homo sapiens, UniProt P36888).
T3 sequence (P36888 27-993): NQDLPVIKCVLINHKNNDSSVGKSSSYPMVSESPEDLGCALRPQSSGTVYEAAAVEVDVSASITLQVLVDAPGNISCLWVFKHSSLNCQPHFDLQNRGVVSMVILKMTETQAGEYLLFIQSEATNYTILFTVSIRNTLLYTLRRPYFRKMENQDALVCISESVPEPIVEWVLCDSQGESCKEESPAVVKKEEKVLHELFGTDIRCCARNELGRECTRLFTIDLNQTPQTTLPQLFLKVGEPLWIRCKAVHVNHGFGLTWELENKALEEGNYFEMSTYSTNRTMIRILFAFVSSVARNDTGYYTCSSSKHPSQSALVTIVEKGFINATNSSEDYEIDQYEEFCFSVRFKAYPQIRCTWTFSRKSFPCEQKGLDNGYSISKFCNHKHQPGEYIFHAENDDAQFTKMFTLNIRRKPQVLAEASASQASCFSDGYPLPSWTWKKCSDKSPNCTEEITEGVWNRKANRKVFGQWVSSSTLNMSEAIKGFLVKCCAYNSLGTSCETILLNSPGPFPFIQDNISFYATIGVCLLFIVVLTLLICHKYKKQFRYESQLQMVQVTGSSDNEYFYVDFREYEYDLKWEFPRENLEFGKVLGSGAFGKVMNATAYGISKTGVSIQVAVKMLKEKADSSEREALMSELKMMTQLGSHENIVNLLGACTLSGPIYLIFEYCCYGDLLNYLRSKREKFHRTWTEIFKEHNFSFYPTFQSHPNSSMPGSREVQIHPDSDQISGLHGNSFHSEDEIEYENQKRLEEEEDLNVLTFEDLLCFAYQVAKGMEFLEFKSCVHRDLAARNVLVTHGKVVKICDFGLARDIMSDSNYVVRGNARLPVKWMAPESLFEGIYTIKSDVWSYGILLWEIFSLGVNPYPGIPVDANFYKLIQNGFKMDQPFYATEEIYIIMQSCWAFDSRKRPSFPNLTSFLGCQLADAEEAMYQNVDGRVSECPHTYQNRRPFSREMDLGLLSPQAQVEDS
Description: RBC HotSpot Kinase Assay, FLT3. Further details: purchased Reaction Biology (RBC HotSpot). To be noted: isolated kinase enzyme, 33P-ATP, P81 filter-binding. Type of assay: biochemical. Summed up:
as §1

The mark [1] stands for this setting: cell viability, Cell Titer Glo, 48 hours.
[2] abbreviates: MOLM-14, cell viability, Cell Titer Glo, 48 hours.

Read-outs that look alike come from different tables or passages of the source.

T2 sequence (P51617 whole entry): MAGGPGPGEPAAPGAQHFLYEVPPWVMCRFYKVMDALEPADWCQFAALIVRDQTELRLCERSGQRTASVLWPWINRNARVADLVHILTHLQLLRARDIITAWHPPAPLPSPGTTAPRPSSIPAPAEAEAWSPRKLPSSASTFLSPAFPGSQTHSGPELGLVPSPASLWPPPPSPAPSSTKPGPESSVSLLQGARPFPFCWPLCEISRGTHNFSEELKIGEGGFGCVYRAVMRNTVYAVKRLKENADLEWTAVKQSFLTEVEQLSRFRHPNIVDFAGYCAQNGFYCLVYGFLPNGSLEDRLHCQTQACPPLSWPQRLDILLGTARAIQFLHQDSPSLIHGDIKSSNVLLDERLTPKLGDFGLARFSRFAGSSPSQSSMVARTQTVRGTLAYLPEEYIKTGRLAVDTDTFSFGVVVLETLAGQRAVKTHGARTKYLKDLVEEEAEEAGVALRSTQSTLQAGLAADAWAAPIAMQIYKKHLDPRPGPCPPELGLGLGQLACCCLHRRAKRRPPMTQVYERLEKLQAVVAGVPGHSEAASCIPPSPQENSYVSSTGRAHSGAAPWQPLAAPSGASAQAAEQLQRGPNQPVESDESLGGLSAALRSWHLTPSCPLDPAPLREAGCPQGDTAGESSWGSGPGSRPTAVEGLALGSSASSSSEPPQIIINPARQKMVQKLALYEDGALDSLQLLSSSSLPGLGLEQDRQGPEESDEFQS

As to `COc1cc2ncc(-c3nc(N[C@H]4CNC[C@@H]4F)ncc3F)n2nc1C1CCC1` [Compound 52a, 4-(6-cyclobutyl-7-methoxyimidazo[1,2-b]pyridazin-3-yl)-5-fluoro-N-((3S,4S)-4-fluoropyrrolidin-3-yl)pyrimidin-2-amine], the IC50 with MOLM14 D835Y cells (setting [1]) was 3 nM; on IRAK4, 0.9 nM; in the assay with MOLM14 F691L cells (setting [2]), 45 nM; on IRAK1 it was 0.8 nM; at FLT3, under 0.5 nM.
Turning to `COc1cc2ncc(-c3nc(N[C@@H]4CCCNC4)ncc3F)n2nc1C1CCC1` [Compound 53a, (R)-4-(6-cyclobutyl-7-methoxyimidazo[1,2-b]pyridazin-3-yl)-5-fluoro-N-(piperidin-3-yl)pyrimidin-2-amine], the IC50 in the assay with MOLM14 D835Y cells (setting [1]) is 1 nM; at IRAK4 it was under 0.5 nM; in the assay on MOLM14 F691L cells (setting [2]), 10 nM; on IRAK1, 1 nM; at FLT3, under 0.5 nM.
For `COc1cc2ncc(-c3nc(N[C@H]4CNC[C@@H]4F)ncc3F)n2nc1C1CC(C)(C)C1` [Compound 55a, 4-(6-(3,3-dimethylcyclobutyl)-7-methoxyimidazo[1,2-b]pyridazin-3-yl)-5-fluoro-N-((3S,4S)-4-fluoropyrrolidin-3-yl)pyrimidin-2-amine], the IC50 in the assay with MOLM14 D835Y cells (setting [1]) is 28 nM; at IRAK4 it was 2 nM; in the assay on MOLM14 F691L cells (setting [2]), 225 nM; at IRAK1, 5 nM; on FLT3, under 0.5 nM.
For `COc1cc2ncc(-c3nc(N[C@@H]4CCCNC4)ncc3F)n2nc1C1CC(C)(C)C1` [Compound 56a, (R)-4-(6-(3,3-dimethylcyclobutyl)-7-methoxyimidazo[1,2-b]pyridazin-3-yl)-5-fluoro-N-(piperidin-3-yl)pyrimidin-2-amine], in that order: 8 nM, 2 nM, 71 nM, 0.7 nM and under 0.5 nM.
As for `COc1cc2ncc(-c3nc(N[C@H]4CNC[C@@H]4F)ncc3F)n2nc1C1CC2(CCC2)C1` [Compound 58a, 5-fluoro-N-((3S,4S)-4-fluoropyrrolidin-3-yl)-4-(7-methoxy-6-(spiro[3.3]heptan-2-yl)imidazo[1,2-b]pyridazin-3-yl)pyrimidin-2-amine], the IC50 is 14 nM in the assay with MOLM14 D835Y cells (setting [1]); 5 nM on IRAK4; 127 nM in the assay with MOLM14 F691L cells (setting [2]); 7 nM at IRAK1; under 0.5 nM on FLT3.
With `COc1cc2ncc(-c3nc(N[C@H]4CNC[C@@H]4F)ncc3F)n2nc1C1CCCC1` [Compound 61a, 4-(6-cyclopentyl-7-methoxyimidazo[1,2-b]pyridazin-3-yl)-5-fluoro-N-((3S,4S)-4-fluoropyrrolidin-3-yl)pyrimidin-2-amine], the IC50 was 3 nM in the assay with MOLM14 D835Y cells (setting [1]); under 0.5 nM at IRAK4; 28 nM in the assay on MOLM14 F691L cells (setting [2]); under 0.5 nM on IRAK1; under 0.5 nM on FLT3.
Take `COc1cc2ncc(-c3nc(N[C@@H]4CCCNC4)ncc3F)n2nc1C1CCCC1` [Compound 62a, (R)-4-(6-cyclopentyl-7-methoxyimidazo[1,2-b]pyridazin-3-yl)-5-fluoro-N-(piperidin-3-yl)pyrimidin-2-amine]: the IC50 with MOLM14 D835Y cells (setting [1]) is 1 nM; at IRAK4 it was under 0.5 nM; in the assay on MOLM14 F691L cells (setting [2]) it was 9 nM; at IRAK1 it was 0.6 nM; on FLT3 it was under 0.5 nM.
Take `COc1cc2ncc(-c3nc(N[C@H]4CNCC[C@@H]4F)ncc3F)n2nc1C1CCCC1` [Compound 63a, 4-(6-cyclopentyl-7-methoxyimidazo[1,2-b]pyridazin-3-yl)-5-fluoro-N-((3S,4S)-4-fluoropiperidin-3-yl)pyrimidin-2-amine]: the IC50 with MOLM14 D835Y cells (setting [1]) is 2 nM; on IRAK4, under 0.5 nM; in the assay on MOLM14 F691L cells (setting [2]) it was 13 nM; at IRAK1, under 0.5 nM; at FLT3 it was under 0.5 nM.
Consider `COc1cc2ncc(-c3nc(N[C@H]4CNC[C@@H]4F)ncc3F)n2nc1C1CCCCC1` [Compound 64a, 4-(6-cyclohexyl-7-methoxyimidazo[1,2-b]pyridazin-3-yl)-5-fluoro-N-((3S,4S)-4-fluoropyrrolidin-3-yl)pyrimidin-2-amine], for which the IC50 in the assay with MOLM14 D835Y cells (setting [1]) is 6 nM; at IRAK4, under 0.5 nM; with MOLM14 F691L cells (setting [2]), 57 nM; at IRAK1 it was under 0.5 nM; on FLT3 it was under 0.5 nM.
On to `COc1cc2ncc(-c3nc(N[C@@H]4CCCNC4)ncc3F)n2nc1C1CCCCC1` [Compound 65a, (R)-4-(6-cyclohexyl-7-methoxyimidazo[1,2-b]pyridazin-3-yl)-5-fluoro-N-(piperidin-3-yl)pyrimidin-2-amine], for which the IC50 with MOLM14 D835Y cells (setting [1]) was 3 nM; on IRAK4, under 0.5 nM; in the assay with MOLM14 F691L cells (setting [2]), 18 nM; on IRAK1, under 0.5 nM; at FLT3, under 0.5 nM.
Regarding `COc1cc2ncc(-c3nc(N[C@H]4CNCC[C@@H]4F)ncc3F)n2nc1C1CCCCC1` [Compound 66a, 4-(6-cyclohexyl-7-methoxyimidazo[1,2-b]pyridazin-3-yl)-5-fluoro-N-((3S,4S)-4-fluoropiperidin-3-yl)pyrimidin-2-amine], the IC50 in the assay on MOLM14 D835Y cells is 4 nM; at IRAK4 it was 0.6 nM; in the assay with MOLM14 F691L cells (MOLM-14, 48 h), 28 nM; on IRAK1, under 0.5 nM; at FLT3, under 0.5 nM.
`COc1cc2ncc(-c3nc(N[C@H]4CNC[C@@H]4F)ncc3F)n2nc1C12CC(C1)C2` [Compound 67a, 4-(6-(bicyclo[1.1.1]pentan-1-yl)-7-methoxyimidazo[1,2-b]pyridazin-3-yl)-5-fluoro-N-((3S,4S)-4-fluoropyrrolidin-3-yl)pyrimidin-2-amine]: the IC50 in the assay on MOLM14 D835Y cells (setting [1]) is 9 nM; at IRAK4, 0.9 nM; in the assay on MOLM14 F691L cells (setting [2]), 57 nM; on IRAK1 it was 1 nM; on FLT3, under 0.5 nM.
Consider `COc1cc2ncc(-c3nc(N[C@H]4CNCC[C@@H]4F)ncc3F)n2nc1C12CC(C1)C2` [Compound 69a, 4-(6-(bicyclo[1.1.1]pentan-1-yl)-7-methoxyimidazo[1,2-b]pyridazin-3-yl)-5-fluoro-N-((3S,4S)-4-fluoropiperidin-3-yl)pyrimidin-2-amine], for which the IC50 in the assay with MOLM14 D835Y cells (setting [1]) is 3 nM; on IRAK4 it was 0.7 nM; with MOLM14 F691L cells (setting [2]) it was 25 nM; on IRAK1, 0.9 nM; on FLT3, under 0.5 nM.

Broadly, the IC50 is the concentration needed to halve the response being measured.
